Experimental data as given in patent US12624018B1, “Inhibitors of RIPK2 and medical uses thereof” (Odyssey Therapeutics, Inc., priority 2022, dated 2026).

Biological target: T1, RIPK2 enzyme (Homo sapiens, UniProt O43353)
T1 construct: purchased Carna 09-128
Assay: RIPK2 inhibition (ADP-Glo Kinase Assay)
Format: biochemical
Conditions: RIPK2 5 nM, ATP 150 μM, MBP substrate, read-out: RIPK2 IC50
Summary of the method: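 Human RIPK2 (5 nM) preincubated with compound 30 min at room temperature in 50 mM HEPES pH 7.5, 10 mM MgCl2, 2 mM DTT, 1 mM EGTA, 0.01% Brij-35, 0.05% BSA; native swine MBP as substrate. ADP formed quantified by ADP-Glo luminescence; percent inhibition relative to DMSO and no-enzyme controls.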

T1 sequence (O43353 1-299 limits assumed): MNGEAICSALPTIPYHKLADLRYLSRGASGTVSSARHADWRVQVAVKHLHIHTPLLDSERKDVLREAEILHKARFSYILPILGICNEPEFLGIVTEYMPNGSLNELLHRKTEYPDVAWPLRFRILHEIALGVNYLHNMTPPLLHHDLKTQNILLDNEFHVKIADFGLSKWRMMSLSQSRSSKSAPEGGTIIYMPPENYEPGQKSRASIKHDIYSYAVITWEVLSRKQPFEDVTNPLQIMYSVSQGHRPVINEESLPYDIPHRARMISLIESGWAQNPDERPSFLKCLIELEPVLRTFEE

Row | SMILES | IC50
1 | Cc1cc(CC(=O)Nc2cnn(C(C)(C)C)c2)c(F)cc1Oc1ccnc2ccc(O[C@H]3C[C@H]4CC[C@@H](C3)N4)cc12 [Compound 410, 2-(4-((6-(((1R,3r,5S)-8-azabicyclo[3. 2.1]octan-3-yl)oxy)quinolin-4-yl)oxy)-2-fluoro-5-methyl-pheny1)-N-(1-(tert-butyl)-1H-pyrazol-4-yl)acetamide] | < 2.5 nM
2 | Cc1cc(CC(=O)Nc2cnn(C(C)(C)C)c2)ccc1Oc1ccnc2ccc(OC[C@@H]3CCNC3)cc12 [Compound 192, (R)-N-(1-(tert-butyl)-1H-pyrazol-4-yl)-2-(3-methyl-4-((6-(pyrrolidin-3-ylmethoxy)quinolin-4-yl)oxy)phenyl) acetamide] | < 2.5 nM
3 | CC(C)(C)n1cc(NC(=O)Cc2ccc(Oc3ccnc4ccc(S(=O)(=O)C5CCNCC5)cc34)cc2F)cn1 [Compound 127, N-(1-(tert-butyl)-1H-pyrazol-4-yl)-2-(2-fluoro-4-((6-(piperidin-4-ylsulfonyl)quinolin-4-yl)oxy)phenyl)acetamide] | < 2.5 nM
4 | Cc1c(Oc2ccnc3ccc(S(=O)(=O)C4COC4)cc23)ccc(CC(=O)Nc2cnn(C(C)(C)C)c2)c1F [Compound 248, N-(1-(tert-butyl)-1H-pyrazol-4-yl)-2-(2-fluoro-3-methyl-4-((6-(oxetan-3-ylsulfonyl)quinolin-4-yl)oxy)phenyl)acetamide] | < 2.5 nM
5 | Cc1cc(CC(=O)Nc2cnn(C(C)(C)C)c2)ccc1Oc1ccnc2ccc(S(=O)(=O)N3CCN(C)CC3)cc12 [Compound 118, N-(1-(tert-butyl)-1H-pyrazol-4-yl)-2-(3-methyl-4-((6-((4-methylpiperazin-1-yl)sulfonyl)quinolin-4-yl)oxy)phenyl)acetamide] | < 2.5 nM
6 | Cc1cc(CC(=O)Nc2cnn(C(C)(C)C)c2)ccc1Oc1ccnc2ccc(C(=O)N3CCNCC3)cc12 [Compound 207, N-(1-(tert-butyl)-1H-pyrazol-4-yl)-2-(3-methyl-4-((6-(piperazine-1-carbonyl)quinolin-4-yl)oxy)phenyl) acetamide] | < 2.5 nM
7 | COc1ccc2nccc(Oc3ccc(CC(=O)Nc4cnn(C(C)(C)C)c4)c(F)c3)c2c1 [Compound 1, N-(1-(tert-butyl)-1H-pyrazol-4-yl)-2-(2-fluoro-4-((6-methoxy-quinolin-4-yl)oxy)phenyl) acetamide] | 5.6 nM
8 | Cn1nc(NC(=O)Cc2ccc(Oc3ccnc4ccc(S(C)(=O)=O)cc34)cc2F)cc1C(C)(C)C [Compound 40, N-(5-(tert-butyl)-1-methyl-1H-pyrazol-3-yl)-2-(2-fluoro-4-((6-(methylsulfonyl)quinolin-4-yl)oxy)phenyl)acetamide] | < 2.5 nM

The remaining lines, values ahead:

Row | IC50 | SMILES
9 | < 2.5 nM | Cc1cc(CC(=O)Nc2cnn(C(C)(C)C)c2)ccc1Oc1ccnc2ccc(S(=O)(=O)C(C)(C)CO)cc12 [Compound 310, N-(1-(tert-butyl)-1H-pyrazol-4-yl)-2-(4-((6-((1-hydroxy-2-methylpropan-2-yl)sulfonyl)quinolin-4-yl)oxy)-3-methylphenyl)acetamide]
10 | < 2.5 nM | CNC(=O)c1cc2c(Oc3cc(F)c(CC(=O)Nc4cnn(C(C)(C)C)c4)cc3C)ccnc2cc1OC [Compound 437, 4-(4-(2-((1-(tert-butyl)-1H-pyrazol-4-yl)amino)-2-oxoethyl)-5-fluoro-2-methylphenoxy)-7-methoxy-N-methylquinoline-6-carboxamide]
11 | < 2.5 nM | Cc1c(Oc2ccnc3ccc(C(=O)O)cc23)ccc(CC(=O)Nc2cnn(C(C)(C)C)c2)c1F [Compound 333, 4-(4-(2-((1-(tert-butyl)-1H-pyrazol-4-yl)amino)-2-oxoethyl)-3-fluoro-2-methyl-phenoxy) quinoline-6-carboxylic acid]
12 | < 2.5 nM | Cc1c(Oc2ccnc3ccc(C(=O)N4CCOCC4)cc23)ccc(CC(=O)Nc2cnn(C(C)(C)C)c2)c1F [Compound 355, N-(1-(tert-butyl)-1H-pyrazol-4-yl)-2-(2-fluoro-3-methyl-4-((6-(morpholine-4-carbonyl)quinolin-4-yl)oxy)phenyl) acetamide]
